Assay results as given in article PMC8007111, “Novel Potent Muscarinic Receptor Antagonists: Investigation on the Nature of Lipophilic Substituents in the 5- and/or 6-Positions of the 1,4-Dioxane Nucleus” (Journal of Medicinal Chemistry, 2020).

How the values were obtained:
hM1 mAChR = target: T1, hM1 mAChR (Homo sapiens, UniProt P11229); assay: [3H]NMS inhibition radioligand binding, hM1 in CHO-K1 cell membranes; settings: [3H]NMS, CHO-K1 cell membranes; mean ± S.E.M.
T1 construct: expressed in transfected cells; host or cells: CHO-K1 (membrane preparation)
T1 sequence (P11229 1-460): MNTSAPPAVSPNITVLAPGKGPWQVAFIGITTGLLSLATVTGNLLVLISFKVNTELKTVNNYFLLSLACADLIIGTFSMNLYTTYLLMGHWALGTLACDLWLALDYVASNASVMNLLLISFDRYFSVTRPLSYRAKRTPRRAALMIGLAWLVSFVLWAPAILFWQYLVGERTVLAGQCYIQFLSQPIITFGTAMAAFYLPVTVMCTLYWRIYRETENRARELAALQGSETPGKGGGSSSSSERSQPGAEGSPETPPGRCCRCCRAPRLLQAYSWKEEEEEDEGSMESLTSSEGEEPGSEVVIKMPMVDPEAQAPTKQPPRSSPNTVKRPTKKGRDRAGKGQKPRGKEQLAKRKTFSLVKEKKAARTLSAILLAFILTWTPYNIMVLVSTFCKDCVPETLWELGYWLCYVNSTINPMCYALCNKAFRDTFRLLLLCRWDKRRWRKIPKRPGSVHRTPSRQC

hM4 mAChR = target: T2, hM4 mAChR (Homo sapiens, UniProt P08173); assay: [3H]NMS inhibition radioligand binding, hM4 in CHO-K1 cell membranes; settings: [3H]NMS, CHO-K1 cell membranes; mean ± S.E.M.
T2 construct: expressed in transfected cells; host or cells: CHO-K1 (membrane preparation)
T2 sequence (P08173 1-479): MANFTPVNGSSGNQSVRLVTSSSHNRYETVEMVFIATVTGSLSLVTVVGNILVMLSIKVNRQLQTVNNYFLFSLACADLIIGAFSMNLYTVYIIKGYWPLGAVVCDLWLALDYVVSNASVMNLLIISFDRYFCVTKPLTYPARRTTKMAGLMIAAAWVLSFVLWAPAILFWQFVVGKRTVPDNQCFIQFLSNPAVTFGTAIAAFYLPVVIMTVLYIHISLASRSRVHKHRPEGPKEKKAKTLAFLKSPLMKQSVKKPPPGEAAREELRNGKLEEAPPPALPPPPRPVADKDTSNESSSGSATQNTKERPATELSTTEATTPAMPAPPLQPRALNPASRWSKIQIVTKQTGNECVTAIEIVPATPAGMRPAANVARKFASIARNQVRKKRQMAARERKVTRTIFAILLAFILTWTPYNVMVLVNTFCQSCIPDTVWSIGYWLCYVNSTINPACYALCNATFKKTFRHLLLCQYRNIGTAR

## C[N+](C)(C)C[C@@H]1COC[C@](c2ccccc2)(C2CCCCC2)O1.[I-] (relative stereo) [3b, 1-((2R*,6R*)-6-Cyclohexyl-6-phenyl-1,4-dioxan-2-yl)-N,N,N-trimethylmethanaminium Iodide]
hM1 mAChR
  pKi hM1: 9.28 ± 0.19
hM4 mAChR
  pKi hM4: 9.03 ± 0.16
